Measurements as given in ChEMBL document CHEMBL4219088, “Novel 4-aminoquinazoline derivatives induce growth inhibition, cell cycle arrest and apoptosis via PI3Kα inhibition” (Bioorg Med Chem, 2018).

What was measured:
Assay type in all cases: functional, cell-based
HCT-116 = assay: Antiproliferative activity against human HCT116 cells after 72 hrs by sulforhodamine B assay; details: HCT-116, 72 h
SK-HEP1 = assay: Antiproliferative activity against human SKHEP1 cells after 72 hrs by sulforhodamine B assay; details: SK-HEP1, 72 h
MDA-MB-231 = assay: Antiproliferative activity against human MDA-MB-231 cells after 72 hrs by sulforhodamine B assay; details: MDA-MB-231, 72 h
SNU-638 = assay: Antiproliferative activity against human SNU638 cells after 72 hrs by sulforhodamine B assay; details: SNU-638, 72 h
A549 = assay: Antiproliferative activity against human A549 cells after 72 hrs by sulforhodamine B assay; details: A549, 72 h
MCF7 = assay: Antiproliferative activity against human MCF7 cells after 72 hrs by sulforhodamine B assay; details: MCF7, 72 h

| IC50 (HCT-116) | IC50 (SK-HEP1) | IC50 (MDA-MB-231) | IC50 (SNU-638) | IC50 (A549) | IC50 (MCF7) | Compound |
| --- | --- | --- | --- | --- | --- | --- |
| 17.6 µM | 12.4 µM | 9.71 µM | 6.21 µM | 11.4 µM | 22.5 µM | COc1ncc(-c2ccc3ncnc(NCc4ccncc4)c3c2)cc1NS(=O)(=O)c1ccc(F)cc1F |
| 2.74 µM | 0.84 µM | 0.38 µM | 3.96 µM | 0.62 µM | 28.9 µM | COc1ncc(-c2ccc3ncnc(NCCN4CCOCC4)c3c2)cc1NS(=O)(=O)c1ccc(F)cc1F |
| 5.72 µM | 8.98 µM | 4.32 µM | 6.66 µM | 9.42 µM | 18.7 µM | CCCCS(=O)(=O)Nc1cc(-c2ccc3ncnc(NCc4ccncc4)c3c2)cnc1OC |
